Consider 20 compounds from patent publication US7435721B2, “Transport peptides such as C-terminal Erns peptide and analogues thereof” (Pepscan Systems B.V., priority 2000, dated 2008).

Values after ≈ are worked out from the molar mass of the structure shown. Residues, ends and D or L forms follow the SMILES beside them. *: point of attachment. Biotin = O=C1N[C@H]2[C@H](CS[C@H]2CCCCC(=O)*)N1

The first experiment relates to Escherichia coli ATCC 25922. Briefly: Antimicrobial assay (MIC), E. coli. It counts as cell-based.
Conditions: not given
As to the method:
Antimicrobial assay. Two bacterial strains (Escherichia coli ATCC 25922 and Enterococcus faecalis ATCC 29212) were inoculated on heart infusion agar with 5% sheep blood and incubated aerobically overnight at 37° C. From the pure cultures, suspensions were made in saline to a density of 0.5 McFarland. These suspensions were diluted ten-fold in Mueller Hinton II broth, resulting in a final inoculum of approximately 10^7 cfu/ml.
Standard 96-well microtiter trays were filled with 100 ill of two-fold dilutions of peptide in physiologic salt solution in each well, resulting in the following concentration range: 4000, 2000, 1000, 500, 250, 125, 62.25, 31.63, 15.82, 7.96 and 0 μg/ml. The trays in column 12 were filled with 200 μl MH II broth (negative control).
Columns 1-11 of the microtiter trays were filled with 100 μl of the final inoculum of the bacterial suspensions, thus diluting the concentrations of the peptide two fold, resulting in the following peptide concentration range in the wells: 2000, 1000, 500, 250, 125, 62.25, 31.63, 15.82, 7.96, 3.98 and 0 μg/ml. In rows B, C and D, 100 μl of the final inoculum of E. coli and, in rows E, F and G, 100 μl of the final inoculum of E. faecalis was pipetted. The final bacterial concentration was approximately 5×10^5 cfu/well. All trays were sealed and incubated overnight at 37° C. After incubation, the microtiter trays were inspected visually for bacterial growth and the absorbance of the cultures at 630 nm (A630) was determined with an ELISA-reader. […] The experiment was performed independently in triplicate. The test was repeated again in triplicate after two days with the final peptide concentration range in the wells: 5000, 2500, 1250, 625, 312.5, 156.25, 78.12, 39.06, 19.58, 9.79, 4.88, 2.44 and 1.22 μg/ml.
In the case of `CC[C@H](C)[C@H](NC(=O)[C@H](CC(C)C)NC(=O)[C@H](CCCCN)NC(=O)CNC(=O)[C@H](CC(N)=O)NC(=O)CNC(=O)CCCC[C@@H]1SC[C@@H]2NC(=O)N[C@@H]21)C(=O)N[C@@H](CCCCN)C(=O)NCC(=O)N[C@@H](CCCNC(=N)N)C(=O)N[C@H](C(=O)N1CCC[C@H]1C(=O)N[C@H](C(=O)N[C@@H](CCCCN)C(=O)N[C@@H](Cc1ccccc1)C(=O)NCC(=O)N[C@@H](CCCCN)C(=O)N[C@@H](C)C(=O)N[C@@H](CC(=O)O)C(=O)N[C@@H](CS)C(=O)N[C@@H](CC(=O)O)C(=O)N[C@@H](CCCNC(=N)N)C(=O)N1CCC[C@H]1C(=O)N1CCC[C@H]1C(=O)N[C@@H](CCCCN)C(=O)N[C@@H](Cc1c[nH]cn1)C(=O)N[C@@H](CO)C(=O)N[C@@H](CCC(N)=O)C(=O)N[C@@H](CC(N)=O)C(=O)NCC(=O)N[C@@H](CCSC)C(=O)NCC(=O)N[C@@H](CCCCN)C(N)=O)[C@@H](C)CC)[C@@H](C)O` [L3 loop 59-88] (Biotin-GNGKLIKGRTPIKFGKADCDRPPKHSQNGMGK-NH2), the “Antibacterial activity (in words)” value was “no antibacterial activity”.

Still in this experiment, the particulars now being: overnight at 37° C.
On to `CC[C@H](C)[C@H](NC(=O)[C@H](CCCNC(=N)N)NC(=O)[C@H](CC(C)C)NC(=O)[C@H](CCC(N)=O)NC(=O)[C@H](CCCNC(=N)N)NC(=O)CNC(=O)[C@H](CC(C)C)NC(=O)[C@H](Cc1c[nH]c2ccccc12)NC(=O)[C@H](CO)NC(=O)[C@@H](NC(=O)[C@@H](NC(=O)[C@H](CCCNC(=N)N)NC(=O)[C@H](C)NC(=O)[C@H](C)NC(=O)CNC(=O)[C@H](CCC(N)=O)NC(=O)[C@H](CCCNC(=N)N)NC(=O)[C@H](C)NC(=O)[C@H](CC(N)=O)NC(=O)[C@H](CCC(=O)O)NC(=O)[C@@H](NC(=O)[C@@H](NC(=O)[C@H](CC(N)=O)NC(=O)[C@@H](NC(=O)[C@H](CCSC)NC(=O)CNC(=O)[C@H](CC(=O)O)NC(=O)[C@H](CC(C)C)NC(=O)[C@H](CC(C)C)NC(=O)[C@H](Cc1ccc(O)cc1)NC(=O)CCCC[C@@H]1SC[C@@H]2NC(=O)N[C@@H]21)[C@@H](C)O)[C@@H](C)O)[C@@H](C)CC)C(C)C)[C@@H](C)O)C(=O)N[C@@H](C)C(=O)NCC(=O)N[C@@H](CCCCN)C(=O)N[C@@H](CCCNC(=N)N)C(=O)N[C@@H](CC(C)C)C(=O)N[C@@H](CCC(=O)O)C(=O)NCC(=O)N[C@@H](CCCNC(=N)N)C(=O)N[C@@H](CO)C(=O)N[C@@H](CCCCN)C(N)=O` [181-220], for which the “MIC (minimal inhibitory concentration needed to inhibit bacterial growth)” value came to 51 µg/mL (≈ 10.8 µM).

As for `CC[C@H](C)[C@H](NC(=O)[C@H](CC(C)C)NC(=O)[C@H](CCCCN)NC(=O)CNC(=O)[C@H](CC(N)=O)NC(=O)CNC(=O)CCCC[C@@H]1SC[C@@H]2NC(=O)N[C@@H]21)C(=O)N[C@@H](CCCCN)C(=O)NCC(=O)N[C@@H](CCCNC(=N)N)C(=O)N[C@H](C(=O)N1CCC[C@H]1C(=O)N[C@H](C(=O)N[C@@H](CCCCN)C(=O)N[C@@H](Cc1ccccc1)C(=O)NCC(=O)N[C@@H](CCCCN)C(=O)N[C@@H](C)C(=O)N[C@@H](CC(=O)O)C(=O)N[C@@H](CS)C(=O)N[C@@H](CC(=O)O)C(=O)N[C@@H](CCCNC(=N)N)C(=O)N1CCC[C@H]1C(=O)N1CCC[C@H]1C(=O)N[C@@H](CCCCN)C(=O)N[C@@H](Cc1c[nH]cn1)C(=O)N[C@@H](CO)C(=O)N[C@@H](CCC(N)=O)C(=O)N[C@@H](CC(N)=O)C(=O)NCC(=O)N[C@@H](CCSC)C(=O)NCC(=O)N[C@@H](CCCCN)C(N)=O)[C@@H](C)CC)[C@@H](C)O` [L3 loop 59-88] (Biotin-GNGKLIKGRTPIKFGKADCDRPPKHSQNGMGK-NH2), the “MIC (minimal inhibitory concentration needed to inhibit bacterial growth)” value is above 500 µg/mL.

A further experiment has as its system guinea pig erythrocytes. Briefly: Hemolytic assay, guinea pig erythrocytes. The settings on record: 1% v/v, one hour at 37° C. Format: cell-based. As to the method:
Hemolytic assay. Hemolytic activity of various peptide concentrations was determined by incubation with human, guinea pig or sheep erythrocyte suspensions (final erythrocyte concentration, 1% v/v) for one hour at 37° C. After cooling and centrifugation, the optical density of the supernatants were measured at 540 nm. Peptide concentrations causing 50% hemolysis (EC50) were derived from the dose-response curves.
For the compound `CC[C@H](C)[C@H](NC(=O)[C@H](CCCNC(=N)N)NC(=O)[C@H](CC(C)C)NC(=O)[C@H](CCC(N)=O)NC(=O)[C@H](CCCNC(=N)N)NC(=O)CNC(=O)[C@H](CC(C)C)NC(=O)[C@H](Cc1c[nH]c2ccccc12)NC(=O)[C@H](CO)NC(=O)[C@@H](NC(=O)[C@@H](NC(=O)[C@H](CCCNC(=N)N)NC(=O)[C@H](C)NC(=O)[C@H](C)NC(=O)CNC(=O)[C@H](CCC(N)=O)NC(=O)[C@H](CCCNC(=N)N)NC(=O)[C@H](C)NC(=O)[C@H](CC(N)=O)NC(=O)[C@H](CCC(=O)O)NC(=O)[C@@H](NC(=O)[C@@H](NC(=O)[C@H](CC(N)=O)NC(=O)[C@@H](NC(=O)[C@H](CCSC)NC(=O)CNC(=O)[C@H](CC(=O)O)NC(=O)[C@H](CC(C)C)NC(=O)[C@H](CC(C)C)NC(=O)[C@H](Cc1ccc(O)cc1)NC(=O)CCCC[C@@H]1SC[C@@H]2NC(=O)N[C@@H]21)[C@@H](C)O)[C@@H](C)O)[C@@H](C)CC)C(C)C)[C@@H](C)O)C(=O)N[C@@H](C)C(=O)NCC(=O)N[C@@H](CCCCN)C(=O)N[C@@H](CCCNC(=N)N)C(=O)N[C@@H](CC(C)C)C(=O)N[C@@H](CCC(=O)O)C(=O)NCC(=O)N[C@@H](CCCNC(=N)N)C(=O)N[C@@H](CO)C(=O)N[C@@H](CCCCN)C(N)=O` [181-220], the “Hemolysis (peptide concentration causing 50% hemolysis)” value is 0.09 mg/mL.

The subject of a further experiment is live cells in suspension or subconfluent monolayers.
Experiment: not given
It counts as cell-based.
Conditions: not given
With “Biotin-RVRSWLGRQLRIAGKRLEGRSK-NH2 [MDL-9]”, the “Concentration (translocation activity), optimization of E^rns peptide” value (“Concentration … of E^rns peptide” for short) came out at 1.0 µM.

Biotin-KKPGKKTTTKPTKK-NH2 [MDS-23]: the “Concentration (translocation activity of transport peptides)” value stood at 0.3 µM.

For the compound “Biotin-DTRQARRNRRRRWRERQRAAAAR-NH2 [HIV-1 Rev]”, the “Concentration (translocation activity of transport peptides)” value came out at 0.1 µM.

Consider “Biotin-TRRSKRRSHRKF-NH2 [Herpes virus 8 k8 protein (res 124-135)]”, for which the “Concentration (translocation activity of transport peptides)” value amounted to 0.1 µM.

With Biotin-RQLRIAGRRLRGRSR-NH2 [MDM-28], the “Concentration … of E^rns peptide” value turned out to be 0.1 µM.

In the case of “Biotin-RRVTSWLGRQLRIAGKRLEGRSK-NH2 [MDL-8]”, the “Concentration … of E^rns peptide” value was found to be 1.0 µM.

For “Biotin-KKPGKKTTTKPTKKPTIKTTKK-NH2 [MDS-09]”, the “Concentration (translocation activity of transport peptides)” value stood at 0.3 µM.

Regarding “Biotin-GNGKLIKGRTPIKFGKADCDRPPKHSQNGM-NH2”, the “Concentration (translocation activity), mapping of restrictocin L3 loop” value (“Concentration … of restrictocin L3 loop” for short) turned out to be 3.0 µM.

With “Biotin-KRIPNKKPGKKTTTKPTKKPTIKTTKKDLKPQTTKPK-NH2 [MDN-12]”, the “Concentration (translocation activity of transport peptides)” value was determined as 1.0 µM.

For Biotin-GRQLRRAGRRLRRRSR-NH2 [MDM-27], the “Concentration … of E^rns peptide” value was determined as 0.1 µM.

In the case of Biotin-RRRERRAEK-NH2, the “Concentration (translocation activity of transport peptides)” value turned out to be 1.0 µM.

Turning to Biotin-GRQLRIAGRRLRRRSR-NH2 [MDM-26], the “Concentration … of E^rns peptide” value is 0.1 µM.

As to Biotin-KLIKGRTPIKFGKADCDRPPKHSGK-NH2, the “Concentration … of restrictocin L3 loop” value is 0.3 µM.

In the case of “Biotin-RPRGTRGKGRRIRR-NH2 [HIV-1 tat/tar]”, the “Concentration (translocation activity of transport peptides)” value worked out at 0.3 µM.

On to Biotin-GRQLRIAGKRLRGRSK-NH2 [MDR-25], for which the “Concentration … of E^rns peptide” value is 0.3 µM.

Turning to “Biotin-KRIPNKKPGKKTTTKPTKKPTIKTTKKDLK-NH2 [MDN-13]”, the “Concentration (translocation activity of transport peptides)” value came to 1.0 µM.

As to “Biotin-RAGLQFPVGRVHRLLRK-NH2 [Antibacterial peptide Buforin, reference compound]”, the “Concentration (translocation activity of transport peptides)” value stood at 3.0 µM.

Consider Biotin-PKKKRKV-NH2, for which the “Concentration (translocation activity of transport peptides)” value worked out at 0.1 µM.

Turning to `CC[C@H](C)[C@H](NC(=O)[C@H](CC(C)C)NC(=O)[C@H](CCCCN)NC(=O)CNC(=O)[C@H](CC(N)=O)NC(=O)CNC(=O)CCCC[C@@H]1SC[C@@H]2NC(=O)N[C@@H]21)C(=O)N[C@@H](CCCCN)C(=O)NCC(=O)N[C@@H](CCCNC(=N)N)C(=O)N[C@H](C(=O)N1CCC[C@H]1C(=O)N[C@H](C(=O)N[C@@H](CCCCN)C(=O)N[C@@H](Cc1ccccc1)C(=O)NCC(=O)N[C@@H](CCCCN)C(=O)N[C@@H](C)C(=O)N[C@@H](CC(=O)O)C(=O)N[C@@H](CS)C(=O)N[C@@H](CC(=O)O)C(=O)N[C@@H](CCCNC(=N)N)C(=O)N1CCC[C@H]1C(=O)N1CCC[C@H]1C(=O)N[C@@H](CCCCN)C(=O)N[C@@H](Cc1c[nH]cn1)C(=O)N[C@@H](CO)C(=O)N[C@@H](CCC(N)=O)C(=O)N[C@@H](CC(N)=O)C(=O)NCC(=O)N[C@@H](CCSC)C(=O)NCC(=O)N[C@@H](CCCCN)C(N)=O)[C@@H](C)CC)[C@@H](C)O` [L3 loop 59-88] (Biotin-GNGKLIKGRTPIKFGKADCDRPPKHSQNGMGK-NH2), the “Translocation activity (in words)” value was “showed translocation activity”.

The experiment is the same for the next values; noted with them: Table 10.
As for `CC[C@H](C)[C@H](NC(=O)[C@H](CC(C)C)NC(=O)[C@H](CCCCN)NC(=O)CNC(=O)[C@H](CC(N)=O)NC(=O)CNC(=O)CCCC[C@@H]1SC[C@@H]2NC(=O)N[C@@H]21)C(=O)N[C@@H](CCCCN)C(=O)NCC(=O)N[C@@H](CCCNC(=N)N)C(=O)N[C@H](C(=O)N1CCC[C@H]1C(=O)N[C@H](C(=O)N[C@@H](CCCCN)C(=O)N[C@@H](Cc1ccccc1)C(=O)NCC(=O)N[C@@H](CCCCN)C(=O)N[C@@H](C)C(=O)N[C@@H](CC(=O)O)C(=O)N[C@@H](CS)C(=O)N[C@@H](CC(=O)O)C(=O)N[C@@H](CCCNC(=N)N)C(=O)N1CCC[C@H]1C(=O)N1CCC[C@H]1C(=O)N[C@@H](CCCCN)C(=O)N[C@@H](Cc1c[nH]cn1)C(=O)N[C@@H](CO)C(=O)N[C@@H](CCC(N)=O)C(=O)N[C@@H](CC(N)=O)C(=O)NCC(=O)N[C@@H](CCSC)C(=O)NCC(=O)N[C@@H](CCCCN)C(N)=O)[C@@H](C)CC)[C@@H](C)O` [L3 loop 59-88] (Biotin-GNGKLIKGRTPIKFGKADCDRPPKHSQNGMGK-NH2), the “Concentration … of restrictocin L3 loop” value was 1.0 µM.
